Measured values taken from patent publication US5910435A, “Method of folding proteins with synthetic dithiol catalysts” (Wisconsin Alumni Research Foundation, priority 1996, dated 1999).

How the values were obtained:
[1] = test system: pdilΔ Saccharomyces cerevisiae; assay: Rescue of PDI-deficient yeast on 5-FOA plates; assay type: cell-based; conditions: for survival of colonies of PDI-deficient yeast after selection against the PDI plasmid: minimal medium plates containing 5-FOA, BMC at 10 mM, DTT by the same procedure
Protocol: The ability of a synthetic diol protein catalyst to catalyze protein folding in vivo was tested by its ability to replace the function of PDI in a eukaryotic cell. The cells used for this procedure were pdilΔ Saccharomyces cerevisiae, which have a deletion in their PDI1 gene rendering the expressed enzyme dysfunctional. The PDI1 gene is an essential gene for survival of S. cerevisiae. To enable these cells to live, the cells contain a plasmid that directs expression of S. cerevisiae PDI. This plasmid also directs the expression of the […] gene product. These cells were streaked onto plates of minimal medium containing 5-fluoroorotic acid (5-FOA) which makes the URA3 gene product toxic to S. cerevisiae. Accordingly, this selects against presence of the plasmid and surviving cells will have neither the plasmid nor PDI.
This test was run with plates containing 5-FOA which also contained 0 or 10 mM BMC. […] No colonies survived on the plate without BMC.
Cells from the colonies rescued with BMC were then plated onto rich medium without BMC.
This same procedure was repeated with the disulfide bond reducing agent dithiothrietol (DTT). DTT is a low molecular weight dithiol with a higher pKa and a lower E°' than BMC.

[2] = cited from earlier work
[3] = test system: scrambled ribonuclease A; assay: In vitro unscrambling of non-native disulfide bonds (regain of ribonucleolytic activity); assay type: biochemical; conditions: 0, 20 or 200 μM; 1 mM reduced and 0.2 mM oxidized glutathione, pH 7.6, 30° C.; FIG. 5
Protocol: Disulfide bonds form readily in an oxidizing environment. These disulfide bonds may not, however, be the ones that exist in the native, active conformation of a protein. The desirable property in a synthetic protein foldase is the ability to catalyze the unscrambling of non-native disulfide bonds. The ability of BMC to catalyze the unscrambling of non-native disulfide bonds in vitro was assayed by a method similar to that reported previously by our group and others. Laboissiere et al, Protein Express. Purif. 6:700-706 (1995).
This assay is based on the disulfide bonds in ribonuclease A, a well-characterized enzyme. In its native, enzymatically active conformation, ribonuclease A has eight cysteine residues which participate in four specific disulfide bonds. […]
In the assay, BMC was tested for its ability to catalyze the regain of enzymatic activity in scrambled ribonuclease A. This regain in activity can only occur by the isomerization (or unscrambling) of the non-native disulfide bonds. […] In this test, the aliquot was added to 500 μL of 100 mM MES-HCl buffer, pH 6.0, containing 100 mM NaCl and 10 mM poly(C) RNA, which is a substrate for ribonuclease A. Ribonucleolytic activity was monitored by following the change in absorbance at 238 nm which accompanies the cleavage of poly(C) by enzymatically active ribonuclease A.

[4] = test system: PDI deficient yeast; assay: Complementation of PDI-deficient yeast with thioredoxin and its active-site mutants; assay type: cell-based
Text: Because the proper folding of proteins is of significant scientific and commercial interest, systems have been designed to help to study protein folding. One such system is based on a yeast cells which lack a nuclear gene for the PDI enzyme, and are therefore incapable of catalyzing the formation of the proper disulfide bonds required for biological activity of proteins. Such yeast cells can be grown so long as they harbor a plasmid that produces PDI, but the cells promptly expire when the plasmid PDI is removed. The ability of mutant, altered, or engineered forms of PDI to rescue the PDI-deficient yeast cultures from death is a test of the suitability of such altered isoforms to properly fold proteins. Investigation into the function of PDI, and its use in the unscrambling of non-native disulfide bonds, is described by Laboissiere et al., J. Biol. Chem. 270:47:28006-28009 (1995). Based on this test system, it has been possible to determine that the motif for PDI activity consists of a particular amino acid domain. This domain is shared in common with the reducing bacterial enzyme thioredoxin. The domain has the consensus sequence Cys-X-X-Cys (SEQ ID NO: 1 or C-X-X-C, where X is an amino acid, Edman, Nature 317:267-270 (1985).
That study was conducted using mutant PDI deficient yeast. […]

Compound	survival of colonies of PDI-deficient yeast after selection against the PDI plasmid [1]	pKa relative to BMC [2]	time until surviving colonies appeared ([1]; 5-FOA plate with 10 mM BMC)	catalysis of the regain of biological activity of a protein with scrambled disulfide bonds [3]	total yield of active protein, in the presence versus in the absence of the catalyst [3]	complementation (rescue) of PDI deficient yeast [4]
O[C@@H](CS)[C@@H](O)CS (relative stereo) [DTT, dithiothrietol, reference compound]	no yeast colonies could be rescued	higher				
O=C(CS)NC1CCCCC1NC(=O)CS (stereo not shown) [BMC, N,N'-bis(2-mercaptoacetyl)-1,2-diaminocyclohexane]	Surviving colonies appeared		5 days	significant catalysis	significantly greater	
thioredoxin: 12 kilodalton protein from E. coli, prokaryotic functional homolog of PDI, active site Cys-Gly-Pro-Cys						failed
